From patent publication US8383816B2, “Aryl-quinolyl compounds and their use” (Cancer Research Technology Limited, priority 2008, dated 2013)
Several values for one entry are separate records, joined by “and”; a condition that tells them apart may be missing. Identical values can stand only once.

How the values were obtained:
[1] = biological target: B-RAF (Homo sapiens, UniProt P15056, V600E); experiment: DELFIA Kinase Assay; format: biochemical; settings: 100 μM ATP
Description: Biological Methods—DELFIA Kinase Assay
Compounds were assessed by a kinase assay performed according to the following protocol.
DELFIA Kinase Buffer (DKB):
DKB1 (DKB with B-RAF and MEK Protein):
Combine 4950 μL of DKB and 50 μL of 2.5 mg/ml GST-MEK stock (to give […] of MEK per 40 μL). Then add 22.5 μL of B-RAF to give ˜0.2 μL of B-RAF per 40 μL.
DKB2 (DKB with MEK Protein):
Combine 4950 μL of DKB and 50 μL of 2.5 mg/ml GST-MEK stock (to give 1 mg of MEK per 40 μL). Use 500 μL of this for the blow out (BO) and the empty vector (EV) control.
100 mM stock, dilute to 500 μM to give 100 μM final concentration in assay.
Inhibitors (Test Compounds):
Phospho-MEK½ CST #9121S diluted 1:1000 in DELFIA assay buffer (AB). Preincubate antibody in the AB for 30 minutes at room temperature prior to use.
Anti-rabbit-Eur labelled secondary Perkin Elmer #AD0105 diluted 1:1000 in DELFIA assay buffer (AB). Preincubate antibody in the AB for 30 minutes at room temperature prior to use. (Primary and secondary antibodies were incubated together.)
1. Preblock wells with 5% milk in TBS for 1 hour.
2. Wash wells with 3× with 200 μL TBS.
3. Plate out 40 μL of DKB1 for all inhibitors (test compounds), DMSO control, and optionally other control compounds.
4. Plate out 40 μL of DKB2 for BO and EV wells.
5. Add inhibitors (test compounds) at 0.5 μL per well according to desired plate layout.
6. Add 0.5 μL DMSO to vehicle control wells.
7. Add 2 μL of B-RAF to BO and EV wells.
8. Pre-incubate with inhibitors (test compounds) for 10 minutes at room temperature with shaking.
9. Add 10 μL of 500 μM ATP stock, in DKB, to give 100 μM assay concentration.
10. Seal plates with TopSeal and incubate at room temperature with shaking for 45 minutes.
11. Wash plates 3× with 200 μL 0.1% Tween20/Water to terminate reaction.
12. Add 50 μL per well of antibody mix and incubate for 1 hour at room temperature with shaking.
13. Wash plates 3× with 200 μL 0.1% Tween20/Water.
14. Add 100 μL DELFIA enhancement solution per well, cover in foil, and incubate at room temperature for 30 minutes with shaking.
15. Read on Victor using Europium protocol.
(§1) Values for the blank (Empty Vector) are subtracted from all values. The DMSO controls are set as 100% activity and assay points (the response) are calculated as a percentage of the DMSO control. Data are plotted using Graphpad Prism software and a non-linear regression line is calculated using a variable slope sigmoidal dose-response equation (Y=Bottom+(Top−Bottom)/(1+10^((LogEC50−X)*HillSlope)) where X is the logarithm of concentration. Y is the response). The IC50 generated by this procedure is the concentration of the drug that produces a percentage control fluorescence value midway between the saturation, and zero-effect plateaus. Three independent assays are usually performed and the mean IC50 is reported.

[2] = test system: WM266.4 melanoma cells; experiment: SRB Cell Proliferation Assay (SRB GI50); format: cell-based; settings: Homo sapiens, WM 266-4, 144 h, 6 days growth
Description: Biological Methods—SRB Cell Proliferation Assay (SRB GI50)
Cultures of WM266.4 melanoma cells are routinely cultured in DMEM/10% foetal bovine serum, at 37° C., in 5% CO2 water saturated atmosphere. Cultures are maintained in exponential growth phase by sub-culturing before having become confluent (3-5 day intervals). Single cell suspensions are prepared by harvesting an 80 cm^2 tissue culture flask with 5 mL commercial trypsin EDTA. After 5 minutes, the detached cells are mixed with 5 mL fully complemented culture medium and centrifugally pelleted (1000 rpm for 7 minutes). After aspirating the supernatant, the cell pellet is re-suspended in 10 mL fresh medium and the cells fully disaggregated by drawing the whole volume up/down 5 times through a 19-gauge needle. The concentration of the cells is determined using a haemocytometer (1/10 dilution). A suitable volume to give at least a 2-fold excess for the number of tests being conducted, typically 100-200 mL, is prepared by diluting the cell suspension to 10,000/mL, and 100 μL/well dispensed into 96 well plates using a programmable 8-channel peristaltic pump, giving 1000 cells/well, leaving column 12 blank. The plates are returned to the incubator for 24 hours to allow the cells to re-attach.
The compounds being tested are prepared at 20 mM in dimethylsulphoxide. Aliquots (200 μL) are diluted into 20 mL culture medium giving 200 μM, and 10 serial dilutions of 3× performed by transferring 5 mL to 10 mL. Aliquots (100 μL) of each dilution are added to the wells, using an 8-channel pipettor, thus performing a final further 2× dilution, and giving doses ranging from 100 μM to 0.005 μM. Column 11 receives plain culture medium only. Each compound is tested in quadruplicate, each replicate being the average of four wells, and two plates per compound.
After a further 6 days growth, the plates are emptied, and the cells are fixed in 10% trichloroacteic acid for 10 minutes on ice. After thorough rinsing in running tap water, the plates are dried, and stained by adding 50 μL of a solution of 0.1% sulphorhodamine-B in 1% acetic acid, for 10 minutes at room temperature. The stain is poured out and the plates thoroughly rinsed under a stream of 1% acetic acid, thus removing unbound stain, and dried. The bound stain is taken into solution by addition of 150 μL Tris buffer pH 8, followed by 10 minutes on a plate-shaker (approximately 500 rpm). The absorbance at 540 nm in each well (being proportional to the number of cells present) is determined using a plate reader.
After averaging the results in rows A-D and E-H, the blank value (row 12) is subtracted, and results expressed as percentage of the untreated value (row 11). […] The GI50 generated by this procedure is the concentration of the drug that produces a percentage control A540 midway between the saturation, and zero-effect plateaus.

[3] = test system: pERK; experiment: Cell Based Phospho-ERK Assay; settings: 6 h, cells incubated with test compound for 6 hours
Description: Biological Methods—Cell Based Phosho-ERK Assay
Compounds were assessed using a cell-based assay which was performed according to the following protocol.
Plate out 16,000 cells/well in 99 μL medium in a 96-well plate.
1. Add 1 μL inhibitor to the cells […].
2. Incubate the cells with test compound for 6 hours at 37° C.
3. Aspirate off the solution from all of the wells.
4. Fixate the cells with 100 μL 4% formaldehyde/0.25% Triton X-100 PBS per well.
5. Incubate the plate for 1 hour at 4° C.
6. Aspirate off the fixing solution and add 300 μL TBS per well.
7. Leave the plate overnight at 4° C.
1. Wash the plate 2× with 200 μL PBS per well.
2. Block with 100 μL 5% dried milk in TBS.
3. Incubate the plate for 20 minutes at 37° C.
4. Wash the plate 2× with 0.1% tween/H2O.
5. Add 50 μL of 3 μg/mL primary antibody pERK (Sigma M8159), diluted in 5% milk powder/TBS, to each well.
6. Incubate the plate for 2 hours at 37° C.
7. Wash the plate 3× with 0.1% tween/H2O.
8. Add 50 μL of 0.45 μg/mL secondary Europium-labelled anti-mouse antibody (Perkin Elmer) to each well.
9. Incubate the plate for 1 hour at 37° C.
10. Wash the plate 3× with 0.1% tween/H2O.
11. Add 100 μL enhancement solution (Perkin Elmer) to each well.
12. Leave the plate for approximately 10 minutes at room temperature before gently shaking the plate.
13. Read Europium Time Resolved Fluorescence in Victor2.
14. Wash the plate 2× with 0.1% tween/H2O.
15. Measure the protein concentration with BCA (Sigma) by adding 200 μL of solution per well.
16. Incubate the plate for 30 minutes at 37° C.
17. Read absorbance levels at 570 nm in a plate reader.
Note that Europium counts are normalised for protein levels by dividing counts by absorbance.
as §1, with “(no cells)” for “(Empty Vector)”

B-RAF, sequence (P15056 whole entry V600E): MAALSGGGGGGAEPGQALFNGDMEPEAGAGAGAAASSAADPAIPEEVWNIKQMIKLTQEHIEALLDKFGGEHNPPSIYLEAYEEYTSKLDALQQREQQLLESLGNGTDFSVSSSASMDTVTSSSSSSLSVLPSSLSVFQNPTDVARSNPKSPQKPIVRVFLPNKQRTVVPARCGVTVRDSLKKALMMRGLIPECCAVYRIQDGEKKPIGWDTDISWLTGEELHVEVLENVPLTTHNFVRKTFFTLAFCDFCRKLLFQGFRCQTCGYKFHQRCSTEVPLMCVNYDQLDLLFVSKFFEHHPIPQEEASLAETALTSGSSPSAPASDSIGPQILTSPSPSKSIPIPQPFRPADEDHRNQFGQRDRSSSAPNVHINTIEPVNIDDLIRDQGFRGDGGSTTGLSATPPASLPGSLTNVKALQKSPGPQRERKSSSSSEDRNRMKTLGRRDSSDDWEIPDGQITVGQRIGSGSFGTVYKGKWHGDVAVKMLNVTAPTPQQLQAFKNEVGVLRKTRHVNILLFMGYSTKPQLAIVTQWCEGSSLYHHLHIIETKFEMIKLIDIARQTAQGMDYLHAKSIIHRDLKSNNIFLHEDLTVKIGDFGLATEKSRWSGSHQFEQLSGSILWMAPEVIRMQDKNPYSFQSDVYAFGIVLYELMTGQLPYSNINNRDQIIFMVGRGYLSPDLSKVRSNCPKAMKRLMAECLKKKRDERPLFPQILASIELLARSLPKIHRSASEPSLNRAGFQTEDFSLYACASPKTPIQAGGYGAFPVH

SMILES | IC50 [1] | GI50 [2] [µM] | IC50 [3] [µM]
O=C(Nc1cc(C(F)(F)F)ccc1F)Nc1ccc(Oc2ccnc3[nH]c(=O)[nH]c23)c2ncccc12 [AA-001, 4-[(5-Amino-quinolinyl-8-oxy)carbonylamino-(2-fluoro-5-trifloromethylphenyl)]-pyridin-5,6-imidazolone] | ≤ 1 µM | ≤ 10 | –
O=C(Nc1ccc(Cl)c(C(F)(F)F)c1)Nc1ccc(Oc2ccnc3[nH]c(=O)[nH]c23)c2ncccc12 [AA-002, 4-[(8-Oxy-quinolinyl-5-amino)carbonylamino-(3-trifluoromethyl-4-chloro-phenyl)]-pyridin-5,6-imidazolone] | ≤ 1 µM | – | –
CC(C)(C)c1cc(NC(=O)Nc2ccc(Oc3ccnc4[nH]c(=O)[nH]c34)c3cccnc23)n(-c2ccccc2)n1 [AA-005, 4-[(5-Oxy-quinolinyl-8-amino)carbonyl-amino-(1-N-phenyl-3-t-butyl-pyrazol-5-yl)]-pyridin-5,6-imidazolone] | ≤ 1 µM | ≤ 10 | ≤ 10
O=C(Nc1ccc(Cl)c(C(F)(F)F)c1)Nc1ccc(Oc2ccnc3[nH]c(=O)[nH]c23)c2cccnc12 [AA-007, 4-[(5-Oxy-quinolinyl-8-amino)carbonylamino-(3-trifluoromethyl-4-chloro-phenyl)]-pyridin-5,6-imidazolone] | ≤ 1 µM | ≤ 10 | ≤ 10
O=C(Nc1cccc(C(F)(F)F)c1)Nc1ccc(Oc2ccnc3[nH]c(=O)[nH]c23)c2cccnc12 [AA-008, 4-[(5-Oxy-quinolinyl-8-amino)carbonylamino-(3-trifluoromethyl-phenyl)]-pyridin-5,6-imidazolone] | ≤ 1 µM | ≤ 10 | ≤ 10
Cc1ccc(-n2nc(C(C)(C)C)cc2NC(=O)Nc2ccc(Oc3ccnc4[nH]c(=O)n(C)c34)c3cccnc23)cc1 [AA-011, 4-[(5-Oxy-quinolinyl-8-amino)carbonyl-amino-(1-N-p-tolyl-3-t-butyl-pyrazol-5-yl)]-pyridin-5-N-methyl,6-imidazolone] | – | ≤ 10 | ≤ 10
Cn1c(=O)[nH]c2nccc(Oc3ccc(NC(=O)Nc4cc(C(C)(C)C)nn4-c4ccccc4)c4ncccc34)c21 [AA-012, 4-[(5-Oxy-quinolinyl-8-amino)carbonyl-amino-(1-N-phenyl-3-t-butyl-pyrazol-5-yl)]-pyridin-5-N-methyl,6-imidazolone] | ≤ 1 µM and 1 µM | – | –
Cn1c(=O)[nH]c2c(Oc3ccc(NC(=O)Nc4cc(C(F)(F)F)ccc4F)c4ncccc34)ccnc21 [AA-013, 5-[(8-Amino-quinolinyl-5-oxy)carbonylamino-3-(2-fluoro-5-trifluoromethyl-phenyl)]-Pyridin-[2,3]-N-methylimidazol-2-one] | ≤ 1 µM | – | ≤ 10
Cc1ccc(-n2nc(C(C)(C)C)cc2NC(=O)Nc2ccc(Oc3ccnc4[nH]c(=O)c(C)nc34)c3cccnc23)cc1 [BB-002, 5-[(8-Amino-quinolinyl-5-oxy)carbonylamino-5-(1-N-p-tolyl-3-t-butyl-imidazolyl)]-pyridin-[2,3]-3-methylpyrazin-2-one] | – | ≤ 10 | ≤ 10

Other lines, results leading:

IC50 [1] | GI50 [2] [µM] | IC50 [3] [µM] | SMILES
– | ≤ 10 | ≤ 10 | CC(C)(C)c1cc(NC(=O)Nc2ccc(Oc3ccnc4[nH]c(=O)[nH]c34)c3ncccc23)n(-c2ccccc2)n1 [AA-006, 4-[(8-Oxy-quinolinyl-5-amino)carbonyl-amino-(1-N-phenyl-3-t-butyl-pyrazol-5-yl)]-pyridin-5,6-imidazolone]
≤ 1 µM | ≤ 10 | ≤ 10 | O=C(Nc1cccc(SC(F)(F)F)c1)Nc1ccc(Oc2ccnc3[nH]c(=O)[nH]c23)c2cccnc12 [AA-009, 4-[(5-Oxy-quinolinyl-8-amino)carbonylamino-(3-trifluoromethylthio-phenyl)]-pyridin-5,6-imidazolone]
– | ≤ 10 | ≤ 10 | Cc1ccc(-n2nc(C(C)(C)C)cc2NC(=O)Nc2ccc(Oc3ccnc4c3[nH]c(=O)n4C)c3cccnc23)cc1 [AA-015]
– | ≤ 10 | ≤ 10 | Cn1c(=O)[nH]c2c(Oc3ccc(NC(=O)Nc4cc(C(C)(C)C)nn4-c4ccccc4)c4ncccc34)ccnc21 [AA-016]
– | ≤ 10 | ≤ 10 | CC(C)(C)c1cc(NC(=O)Nc2ccc(Oc3ccnc4ncc(=O)[nH]c34)c3cccnc23)n(-c2ccccc2)n1 [BB-010]
